“Also recorded” adds a separate entry of the source. Like-named read-outs stand apart in the source and are kept apart here. Where a SMILES comes first, the peptide text is derived from it. [ ]: non-standard residue; d: D form. The star is where a group is joined. 5FAM = O=C1OC2(c3ccc(O)cc3Oc3cc(O)ccc32)c2ccc(C(=O)*)cc21; pY = N[C@@H](Cc1ccc(OP(=O)(O)O)cc1)C(=O)O
What was measured:
STAT5b-SH2 domain = biological target: T1, STAT5b-SH2 domain (Homo sapiens, UniProt P51692); assay: Competitive fluorescence polarization (FP) assay, STAT5b-SH2 domain; settings: for activity / binding to the STAT5-SH2 domain: in words
T1 sequence (P51692 136-703): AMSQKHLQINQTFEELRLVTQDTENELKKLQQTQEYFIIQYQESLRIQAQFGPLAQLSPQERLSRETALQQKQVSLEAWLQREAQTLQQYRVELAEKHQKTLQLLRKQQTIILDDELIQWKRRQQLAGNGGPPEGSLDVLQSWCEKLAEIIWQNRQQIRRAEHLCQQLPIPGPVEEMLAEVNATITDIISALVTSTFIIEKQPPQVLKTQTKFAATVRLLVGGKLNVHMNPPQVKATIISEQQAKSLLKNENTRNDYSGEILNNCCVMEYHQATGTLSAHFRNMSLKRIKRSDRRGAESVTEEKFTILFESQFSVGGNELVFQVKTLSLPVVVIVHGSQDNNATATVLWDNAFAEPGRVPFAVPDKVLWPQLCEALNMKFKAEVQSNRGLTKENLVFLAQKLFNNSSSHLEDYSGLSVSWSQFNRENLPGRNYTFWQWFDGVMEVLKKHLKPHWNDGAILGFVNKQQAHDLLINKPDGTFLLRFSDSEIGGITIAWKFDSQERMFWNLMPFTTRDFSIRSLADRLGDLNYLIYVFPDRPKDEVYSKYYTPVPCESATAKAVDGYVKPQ
Experimental: The ChemBioNet fragment collection composed in accordance with the substructure composition of the World Drug Index (WDI) was screened both for enhancing and inhibiting fragments of the phosphopeptide-STAT5 interaction.
The clone for Stat5b expression was kindly provided by Thorsten Berg (MPI, Martinsried). Expression of that truncated version of Stat5b (aa 136-703) cloned into a modified pQE70, with N-terminal MBP-tag and C-terminal His-tag was conducted on autoinduction medium (overnight express/Novagen). Cells were grown to an optical density (O.D.) of 0.3 at 37° C., then the temperature was reduced to 20° C. for further 48 h of expression. […] The protein was purified by Ni-chelating chromatography followed by gel filtration (Superdex 200/10 mM HEPES pH 7.8, 100 mM NaCl, 1 mM EDTA, 1 mM DTT, 10% glycerol). A yield of 15 mg MBP-Stat5b-His per liter of culture was obtained and aliquots (200 μl of 3.2 mg/ml) were quick-frozen and stored at −80° C., ready for use.
17000 compounds from the (FMP) ChemBioNet library were tested in a competitive-based fluorescence polarization (FP) assay to investigate the ability of compounds to bind to STAT5b-SH2 domain by displacing respective fluorophore-labeled peptides (5-carboxyfluorescein-GY (PO3H2) LSLPPW-NH2). The peptide purity was >95% and the screening were performed at room temperature. The final concentration of buffer components used was 10 mM HEPES (pH 7.5), 1 mM EDTA, 0.1% Igepal CA-630, 50 mM NaCl, and 5% DMSO. The final concentration of protein used was at 65 nM which correspond to the dissociation constants (Kd) for the individual protein-peptide interactions in assay buffer. The protein was first added to the black 384 well plate (Corning 3676) followed by test compounds and fluorophore-labeled peptide. The plates were centrifuged, and measured using Safire^2 well plate reader (Tecan, Crailsheim, Germany) after 15 minutes incubation at room temperature. […] For the analysis of the data GraphPad Prism 5 was used. Ligand efficiencies (LE) were calculated using equation derived as followed. LE=−ΔG°/HA with (ΔG°) is the standard free energy of binding in KJ and HA is the number of non-hydrogen atoms.

STAT3 = biological target: T2, STAT3 (Mus musculus, UniProt P42227); assay: STAT3 phosphorylation and expression in cells; assay type: cell-based; settings: selectivity in cells
T2 construct: endogenous in cells; context BaF3/FLT3-ITD
T2 sequence (P42227 whole entry): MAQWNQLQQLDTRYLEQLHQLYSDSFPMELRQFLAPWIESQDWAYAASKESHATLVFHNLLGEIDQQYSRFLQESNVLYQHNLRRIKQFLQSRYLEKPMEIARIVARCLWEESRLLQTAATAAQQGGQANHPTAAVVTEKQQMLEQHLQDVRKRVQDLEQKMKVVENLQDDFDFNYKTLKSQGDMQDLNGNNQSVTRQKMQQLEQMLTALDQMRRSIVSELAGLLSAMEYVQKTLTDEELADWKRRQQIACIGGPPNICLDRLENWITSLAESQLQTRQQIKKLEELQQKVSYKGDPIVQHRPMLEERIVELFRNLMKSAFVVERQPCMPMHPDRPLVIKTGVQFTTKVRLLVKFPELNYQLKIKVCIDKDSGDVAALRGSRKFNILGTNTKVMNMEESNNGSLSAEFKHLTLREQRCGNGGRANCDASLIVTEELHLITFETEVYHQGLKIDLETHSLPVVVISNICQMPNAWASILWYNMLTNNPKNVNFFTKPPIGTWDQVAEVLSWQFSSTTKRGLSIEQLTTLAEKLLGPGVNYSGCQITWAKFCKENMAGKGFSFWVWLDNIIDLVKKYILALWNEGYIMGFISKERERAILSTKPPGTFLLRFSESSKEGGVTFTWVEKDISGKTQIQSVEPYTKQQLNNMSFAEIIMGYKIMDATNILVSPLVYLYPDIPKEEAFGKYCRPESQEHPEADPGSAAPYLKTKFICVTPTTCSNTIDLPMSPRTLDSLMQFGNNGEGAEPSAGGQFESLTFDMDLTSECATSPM
Experimental: (§2) Cells were seeded at 0.5×10^6 in 6 well plate and allowed to grow overnight followed by 6 hour incubation with test compounds (0.1% DMSO) before protein extraction with M-PER™ Mammalian Protein Extraction Reagent (Pierce) containing 1% (vol/vol) complete protease inhibitor cocktail (Roche Molecular Biochemicals) and 1% (vol/vol) phosphate inhibitor cocktail (Sigma). For Western blotting, 15 μg of protein from each sample were then separated on a 10% SDS-PAGE and transferred to a PVDF membrane. The blots were blocked with TBST buffer (20 mM Tris-HCl [pH 7.4], 140 mM sodium chloride, and 0.05% Tween 20) containing 5% BSA at room temperature for 1 hour, washed 3 times in TBST buffer, and incubated with primary antibody overnight at 4° C. The membranes were then incubated with HRP-conjugated secondary antibody at room temperature for 1 hour. The reaction products were detected using Syngene Pxi4 imager and quantified by Image J.

[1] = system: Pim1 kinase, cyclin D1 and Bcl-xl; assay: Expression of transcriptional targets of STAT5, Western blot in BaF3/FLT3-ITD cells; assay type: cell-based, murine; settings: BaF3/FLT-ITD cells, after 6 h
Excerpt: (FIGS. 7A, B). Next, the functional effects of STAT5 inhibitors (6) and (15) on cellular transcription were investigated. For the purpose, the expression of three transcriptional targets of STAT5, namely Pim1 kinase, cyclin D1 and Bcl-xl, which play essential roles in cell cycle progression and survival, was monitored by Western Blotting (FIGS. 6A, B).

BaF3/FLT3-ITD cells = assay: Cell proliferation assay (Alamar blue); assay type: cell-based, murine; settings: for inhibition of cell proliferation: 48 h, Alamar blue, FLT3-ITD cells
Experimental: Having proven the functional inhibition of STAT5 as a transcription factor, the effect of STAT5 inhibitors on the proliferation of cancer cells carrying the common FLT3-ITD mutation was investigated. Cells were incubated for 48 h and cell proliferation was quantified by the Alamar blue assay (FIG. 5). […] For comparison, we have tested both compounds on non-STAT5-dependent cell lines and the cytotoxicity effect were negligible up to 500 μM. (FIG. S9).
(§1) The effect of compounds on cell lines was evaluated by In Vitro Toxicology Assay Kit, Resazurin based with indicator dye Alamar Blue (Sigma). Adherent and suspension cells were plated at 5×10^3 per well and 1×10^4 per well respectively in triplicate in 96-well plates and incubated in medium containing 10% FBS. For adherent cell, the complete medium was replaced after 24 hours and incubated with test medium containing vehicle control or serial concentration of compounds for 48 hours at 37° C. The remaining wells in the periphery of the microtiter well plate were added PBS and not used to avoid evaporation effects. Alamar Blue was then added, and all plates were incubated at 37° C., and a colorimetric change was measured according to the methods provided by the provided protocol.

[2] = system: non-STAT5-dependent cell lines; assay: Cytotoxicity on non-STAT5-dependent cell lines; assay type: cell-based; settings: up to 500 μM
Experimental: Carol Stocking (University Hospital Hamburg-Eppendorf). […] Cells were incubated at 37° C., 5% CO2 atmosphere.
as §1

STAT5 = STAT5 phosphorylation, Western blot in BaF3/FLT3-ITD cells; settings: for reduction of STAT5 phosphorylation / IC50: 6 h; for reduction of STAT5 phosphorylation / tyrosine phosphorylation of STAT5, dose dependence / overall expression of endogenous STAT5: BaF3/FLT3-ITD; for tyrosine phosphorylation of STAT5, dose dependence: 6 h treatment; for IC50: read-out: IC50 of STAT5 phosphorylation inhibition, BaF3/FLT3-ITD cells
Experimental: At first, the ligand-mediated inhibition of STAT5 phosphorylation at conserved tyrosine residues (Tyr694 and Tyr699) was investigated, which is initiated by the binding of the SH2 domain to phosphorylated cell surface receptors. […] After 6 h cells were harvested to determine the level of STAT5 phosphorylation using phosphotyrosine-specific antibodies (FIGS. 4A-B).
as §2

Solubility = assay type: physicochemical; settings: compared to the 5-aryl-substituted tetrazole

## O=Cc1ccc(OP(=O)(O)O)cc1 [Compound 1, 4-Formylphenyl-dihydrogen-phosphate, reference compound]
STAT5b-SH2 domain
  Ki: > 500 µM

## CC(C)C[C@H](NC(=O)[C@H](Cc1ccc(OP(=O)(O)O)cc1)NC(=O)CNC(=O)c1ccc2c(c1)C(=O)OC21c2ccc(O)cc2Oc2cc(O)ccc21)C(=O)N[C@@H](CO)C(=O)N[C@@H](CC(C)C)C(=O)N1CCC[C@H]1C(=O)N1CCC[C@H]1C(=O)N[C@@H](Cc1c[nH]c2ccccc12)C(N)=O [Compound 2, Fluo-GY*LSLPPW-NH2, reference compound] (5FAM-G[pY]LSLPPW-NH2)
STAT5b-SH2 domain
  Kd: 0.055 µM
  Ki: 0.055 ± 0.006 µM
STAT5b-SH2 domain; Table 1, ligand efficiency
  LE: 0.42 kJ/mol* atom#

## Nc1nonc1C(=O)O [Compound 4, 4-Amino-furazan-3-carboxylic Acid]
STAT5b-SH2 domain; Table 1, ligand efficiency
  LE: 2.14 kJ/mol* atom#
STAT5b-SH2 domain
  activity / binding to the STAT5-SH2 domain: inactive

## c1nnn[nH]1 [Compound 5, 1H-tetrazole, reference compound]
STAT5b-SH2 domain; Table 1, inhibitors of STAT5b, KI converted from IC50
  Ki: > 500 µM
STAT5b-SH2 domain
  activity / binding to the STAT5-SH2 domain: inactive

## COC(=O)c1nonc1NCn1cnnn1 [Compound 6, Methyl 4-((1H-tetrazol-1-yl)-methylamino)-furazan-3-carboxylate]
STAT3
  STAT3 phosphorylation: negligible effects
  endogenous STAT3 expression: negligible effects
[1]
  Pim1, cyclin D1 and Bcl-xL expression: dose dependent reduction
BaF3/FLT3-ITD cells
  inhibition of cell proliferation: clear dose-dependent inhibition
[2]
  cytotoxicity effect: negligible
STAT5; 25 μM
  reduction of STAT5 phosphorylation: clear reduction
STAT5
  tyrosine phosphorylation of STAT5, dose dependence: decrease the tyrosine phosphorylation of STAT5 in a dose dependent manner
  overall expression of endogenous STAT5: no effect
  IC50: 44.2 µM
STAT5b-SH2 domain
  Kd: 76 µM
  Ki: 37.4 ± 1.2 µM
STAT5b-SH2 domain; Table 1, ligand efficiency
  LE: 1.58 kJ/mol* atom#

## CCCCOC(=O)c1nonc1NCn1cnnn1 [Compound 7]
STAT5b-SH2 domain
  Kd: 145 µM
  Ki: 48.2 ± 5 µM
STAT5b-SH2 domain; Table 1, ligand efficiency
  LE: 1.30 kJ/mol* atom#

## COC(=O)c1nsnc1NCn1cnnn1 [Compound 8]
STAT5b-SH2 domain
  Ki: > 500 µM
  activity / binding to the STAT5-SH2 domain: inactive

## O=C(O)c1nonc1NCn1ccnn1 [Compound 9]
STAT5b-SH2 domain
  Ki: 191 ± 24 µM
  activity / binding to the STAT5-SH2 domain: completely inactive
STAT5b-SH2 domain; Table 1, ligand efficiency
  LE: 1.41 kJ/mol* atom#

## O=C(O)c1nonc1NCn1cncn1 [Compound 10]
STAT5b-SH2 domain
  Ki: 47.5 ± 8.5 µM
  activity / binding to the STAT5-SH2 domain: completely inactive
STAT5b-SH2 domain; Table 1, ligand efficiency
  LE: 1.64 kJ/mol* atom#

## O=C(O)c1nonc1NCc1ccccn1 [Compound 11]
STAT5b-SH2 domain
  Ki: > 500 µM
  activity / binding to the STAT5-SH2 domain: completely inactive

## O=C(O)c1nonc1NCn1nnc2ccccc21 [Compound 12]
STAT5b-SH2 domain
  Ki: 188 ± 25 µM
  activity / binding to the STAT5-SH2 domain: completely inactive
STAT5b-SH2 domain; Table 1, ligand efficiency
  LE: 1.12 kJ/mol* atom#

## O=C(O)c1nonc1NCn1cccn1 [Compound 13]
STAT5b-SH2 domain
  Kd: 122 µM
  Ki: 122 ± 7.3 µM
STAT5b-SH2 domain; Table 1, ligand efficiency
  LE: 1.49 kJ/mol* atom#

## COC(=O)c1nonc1NC(=O)Cn1cnnn1 [Compound 14]
STAT5b-SH2 domain
  Ki: > 500 µM
  activity / binding to the STAT5-SH2 domain: abolished the activity

## CC(=O)OC(C)OC(=O)c1nonc1NCn1cnnn1 (stereo not shown) [Compound 15]
STAT3
  STAT3 phosphorylation: negligible effects
  endogenous STAT3 expression: negligible effects
[1]
  Pim1, cyclin D1 and Bcl-xL expression: dose dependent reduction
BaF3/FLT3-ITD cells
  inhibition of cell proliferation: clear dose-dependent inhibition
[2]
  cytotoxicity effect: negligible
STAT5
  tyrosine phosphorylation of STAT5, dose dependence: decrease the tyrosine phosphorylation of STAT5 in a dose dependent manner
  overall expression of endogenous STAT5: no effect
  IC50: 68.9 µM
STAT5b-SH2 domain
  Kd: 14 µM
  Ki: 4.6 ± 1.7 µM
STAT5b-SH2 domain; Table 1, ligand efficiency
  LE: 1.45 kJ/mol* atom#

## COC(=O)c1nonc1NCn1nnnc1-c1ccccc1 [Compound 17]
STAT5b-SH2 domain
  Kd: 37 µM
  Ki: 37.1 ± 6 µM
  LE: 1.15

## COC(=O)c1nonc1NCn1nnnc1-c1ccc(C(F)(F)F)cc1 [Compound 18]
STAT5b-SH2 domain
  Ki: 94.9 ± 2.1 µM
  LE: 0.88

## O=C(O)c1nonc1NCn1nnnc1-c1cccc(OCc2ccccc2)c1 [Compound 19]
STAT5b-SH2 domain
  Ki: 1.2 ± 0.5 µM
  LE: 1.16

## COC(=O)c1nonc1NCn1nnnc1-c1cccc(C(F)(F)F)c1 [Compound 20]
STAT5b-SH2 domain
  Ki: 9.5 ± 1.8 µM
  LE: 1.10

## O=C(O)c1nonc1NCn1nnnc1-c1cccc(C(F)(F)F)c1 [Compound 21]
STAT5b-SH2 domain
  Kd: 0.86 µM
  Ki: 0.86 ± 0.05 µM
  LE: 1.38

## COC(=O)c1nonc1NCn1nnnc1-c1cccc([N+](=O)[O-])c1 [Compound 22]
STAT5b-SH2 domain
  Ki: > 500 µM

## COC(=O)c1nonc1NCn1nnnc1-c1cccc(NS(C)(=O)=O)c1 [Compound 23]
STAT5b-SH2 domain
  Ki: 18.3 ± 2.4 µM
  LE: 1.00

## COC(=O)c1nonc1NCn1nnnc1-c1cccc(O)c1 [Compound 24]
STAT5b-SH2 domain
  Ki: 22.3 ± 3 µM
  LE: 1.21

## COC(=O)c1nonc1NCn1nnnc1-c1cccc(OC(F)(F)F)c1 [Compound 25]
STAT5b-SH2 domain
  Ki: 16.7 ± 4.3 µM
  LE: 1.01

## O=C(O)c1nonc1NCn1nnnc1-c1cccc(OC(F)(F)F)c1 [Compound 26]
STAT5b-SH2 domain
  Ki: 3 ± 0.7 µM
  LE: 1.21

## O=C(O)c1nonc1NCn1nnnc1-c1cccc(F)c1 [Compound 27]
STAT5b-SH2 domain
  Kd: 0.62 µM
  Ki: 0.62 ± 0.09 µM
  LE: 1.61

## O=C(O)c1nonc1NCn1nnnc1-c1ccc(F)cc1 [Compound 28]
STAT5b-SH2 domain
  LE: 1.42

## O=C(O)c1nonc1NCn1nnnc1-c1ccc(-c2ccccc2)cc1 [Compound 29]
STAT5b-SH2 domain
  Kd: 0.8 µM
  Ki: 0.8 ± 0.2 µM
  LE: 1.30

## O=C(O)c1nonc1NCn1nnnc1Cc1ccccc1 [Compound 30, 4-((5-Benzyl-1H-tetrazol-1-yl)-methylamino)-furazan-3-carboxylic Acid]
Solubility
  solubility: strongly improved solubility
STAT5; 50 μM
  reduction of STAT5 phosphorylation: clear reduction; also recorded: reduces STAT5 phosphorylation significantly
STAT5
  IC50: 30.8 µM
STAT5b-SH2 domain
  Ki: 8.6 ± 2 µM
  LE: 1.31

## O=C(O)c1nonc1NCn1nnnc1Cc1ccc(F)cc1 [Compound 31]
STAT5b-SH2 domain
  Ki: 7.2 ± 1.9 µM
  LE: 1.28

## O=C(O)c1nonc1NCn1nnnc1COc1ccccc1 [Compound 100]
BaF3/FLT3-ITD cells
  cellular activity (cell proliferation curves, FIG. 8): significant cellular activity

## O=C(O)c1nonc1NCn1nnnc1CCOc1ccccc1 [Compound 104]
BaF3/FLT3-ITD cells
  cellular activity (cell proliferation curves, FIG. 8): significant cellular activity

## O=C(O)c1nonc1NCn1nnnc1COCc1ccccc1 [Compound 108]
BaF3/FLT3-ITD cells
  cellular activity (cell proliferation curves, FIG. 8): significant cellular activity

## O=C(O)c1nonc1NCn1nnnc1COCCc1ccccc1 [Compound 113]
BaF3/FLT3-ITD cells
  cellular activity (cell proliferation curves, FIG. 8): significant cellular activity

## O=C(O)c1nonc1NCn1nnnc1CCc1ccccc1 [Compound 169]
BaF3/FLT3-ITD cells
  cellular activity (cell proliferation curves, FIG. 8): significant cellular activity

## O=C(O)c1nonc1NCn1nnnc1Cc1cccc(Cl)c1 [Compound 173]
BaF3/FLT3-ITD cells
  cellular activity (cell proliferation curves, FIG. 8): significant cellular activity

## Cc1ccc(Cc2nnnn2CNc2nonc2C(=O)O)cc1 [Compound 174]
BaF3/FLT3-ITD cells
  cellular activity (cell proliferation curves, FIG. 8): significant cellular activity

## COc1ccc(Cc2nnnn2CNc2nonc2C(=O)O)cc1 [Compound 177]
BaF3/FLT3-ITD cells
  cellular activity (cell proliferation curves, FIG. 8): significant cellular activity

## O=C(O)c1nonc1NCn1nnnc1Cc1cccc(F)c1 [Compound 178]
BaF3/FLT3-ITD cells
  cellular activity (cell proliferation curves, FIG. 8): significant cellular activity

## O=C(O)c1nonc1NCn1nnnc1CCCc1ccccc1 [Compound 196]
BaF3/FLT3-ITD cells
  cellular activity (cell proliferation curves, FIG. 8): significant cellular activity

From patent US10683286B2, “Furazan-3-carboxylic acid derivatives and use thereof in treatment of cancer” (FREIE UNIVERSITAET BERLIN, priority 2016, dated 2020)
